Key:
LNCaP cells = test: Cytotoxicity assessment (Cell-titer-glo cell viability), LNCaP; settings: read-out: LNCAP (CC50); LNCaP cells, 6 days of treatment, Cell-titer-glo, vs DMSO
Description: In order to evaluate the androgen receptor (AR) cytotoxicity of the compounds according to the present invention, the following experiment was conducted. Specifically, 1.5×10^3 (LNCaP) or 4×10^3 (VCaP, 22RV1), respectively, of LNCaP, VCaP, and 22RV1 cells were injected into each well of a 96-well plate. The next day, each well was treated with the compound at a final concentration of 3 nM, 10 nM, 30 nM, 100 nM, 300 nM, 1 μM, 3 μM, and 10 μM. […] After 6 days of treatment, Cell-titer-glo (promega) was treated and reacted for 10 minutes, and cell viability was measured with a multimode plate reader (PerkinElmer, Inc.), and the change was quantified compared to when DMSO was treated.

Androgen receptor (AR) = target: T1, Androgen receptor (AR) (Homo sapiens, UniProt P10275, T878A); test: Assessment of AR proteolytic activity (Western blotting of LNCap cell lysates); type: cell-based; settings: 24 hours of treatment, Western blotting quantified with Image J
T1 construct: 5.5×10^5 LNCap cells were injected into each well of a 6-well plate; endogenous in cells; host or cells: LNCaP
T1 sequence (P10275 1-920 T878A): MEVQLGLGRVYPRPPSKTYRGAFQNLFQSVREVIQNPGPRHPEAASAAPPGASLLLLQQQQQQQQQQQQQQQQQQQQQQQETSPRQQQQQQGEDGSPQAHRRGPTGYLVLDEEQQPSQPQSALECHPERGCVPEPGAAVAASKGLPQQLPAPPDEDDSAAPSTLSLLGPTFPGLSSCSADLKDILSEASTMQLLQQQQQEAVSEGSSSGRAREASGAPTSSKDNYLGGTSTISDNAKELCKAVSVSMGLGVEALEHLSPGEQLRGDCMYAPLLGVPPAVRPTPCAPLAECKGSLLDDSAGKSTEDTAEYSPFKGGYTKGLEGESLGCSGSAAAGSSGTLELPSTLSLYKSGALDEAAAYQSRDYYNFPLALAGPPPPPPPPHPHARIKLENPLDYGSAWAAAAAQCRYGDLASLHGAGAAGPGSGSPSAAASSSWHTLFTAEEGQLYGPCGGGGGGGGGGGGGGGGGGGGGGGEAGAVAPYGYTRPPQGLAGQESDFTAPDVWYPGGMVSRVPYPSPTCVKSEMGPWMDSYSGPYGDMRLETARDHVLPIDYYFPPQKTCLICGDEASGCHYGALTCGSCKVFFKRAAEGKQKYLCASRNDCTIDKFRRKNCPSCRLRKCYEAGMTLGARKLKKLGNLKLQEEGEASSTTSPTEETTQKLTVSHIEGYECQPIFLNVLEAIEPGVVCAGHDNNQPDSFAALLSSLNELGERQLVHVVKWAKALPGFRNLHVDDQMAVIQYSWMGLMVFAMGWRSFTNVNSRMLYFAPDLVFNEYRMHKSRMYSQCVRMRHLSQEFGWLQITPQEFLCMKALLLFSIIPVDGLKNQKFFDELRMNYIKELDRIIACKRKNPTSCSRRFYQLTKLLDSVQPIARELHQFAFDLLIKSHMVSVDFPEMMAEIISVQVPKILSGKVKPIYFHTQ
Summary of the method: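 LNCap cells seeded at 5.5×10^5 per well and treated with compound for 24 hours. Lysates prepared in RIPA buffer (pH 7.5, with protease inhibitors). AR protein levels assessed by Western blot with densitometric quantification.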

| Compound | CC50 (LNCaP cells) [nM] | Degradation (1 μM treated in LNCaP, % AR remaining) (Androgen receptor (AR)) [%] | CC50 (VCaP cells) [nM] |
| --- | --- | --- | --- |
| CC1(C)[C@H](NC(=O)c2ccc(N3CCN(C4CC5(CCN(C(=O)COc6ccc7nnn(C8CCC(=O)NC8=O)c(=O)c7c6)CC5)C4)CC3)cc2)C(C)(C)[C@H]1Oc1ccc(C#N)c(Cl)c1 (stereo partly shown) [Example 18, N-((1r,3r)-3-(3-chloro-4-cyanophenoxy)-2,2,4,4-tetramethylcyclobutyl)-4-(4-(7-(2-((3-(2,6-dioxopiperidin-3-yl)-4-oxo-3,4-dihydrobenzo[d][1,2,3]triazin-6-yl)oxy)acetyl)-7-azaspiro[3.5]nonan-2-yl)piperazin-1-yl)benzamide] | 196 | 23 | – |
| CC1(C)[C@H](NC(=O)c2ccc(N3CCN(C4CC5(CCN(C(=O)C6CN(c7ccc8nnn(C9CCC(=O)NC9=O)c(=O)c8c7)C6)CC5)C4)CC3)cc2)C(C)(C)[C@H]1Oc1ccc(C#N)c(Cl)c1 (stereo partly shown) [Example 21, N-((1r,3r)-3-(3-chloro-4-cyanophenoxy)-2,2,4,4-tetramethylcyclobutyl)-4-(4-(7-(1-(3-(2,6-dioxopiperidin-3-yl)-4-oxo-3,4-dihydrobenzo[d][1,2,3]triazin-6-yl)azetidine-3-carbonyl)-7-azaspiro[3.5]nonan-2-yl)piperazin-1-yl)benzamide] | 312 | 21 | – |
| CC1(C)[C@H](NC(=O)c2ccc(N3CCN(CCCC4CCN(c5ccc6nnn(C7CCC(=O)NC7=O)c(=O)c6c5)CC4)CC3)cc2)C(C)(C)[C@H]1Oc1ccc(C#N)c(Cl)c1 (stereo partly shown) [Example 48, N-((1r,3r)-3-(3-chloro-4-cyanophenoxy)-2,2,4,4-tetramethylcyclobutyl)-4-(4-(3-(1-(3-(2,6-dioxopiperidin-3-yl)-4-oxo-3,4-dihydrobenzo[d][1,2,3]triazin-6-yl)piperidin-4-yl)propyl)piperazin-1-yl)benzamide] | – | 35.2 | 77 |
| CC1(C)C(NC(=O)c2ccc(N3CCN(CC4CCN(C(=O)CN5CCN(c6ccc7nnn(C8CCC(=O)NC8=O)c(=O)c7c6)CC5)CC4)CC3)cc2)C(C)(C)C1Oc1ccc(C#N)c(Cl)c1 (stereo not shown) [Example 58, N-((1r,3r)-3-(3-chloro-4-cyanophenoxy)-2,2,4,4-tetramethylcyclobutyl)-4-(4-((1-(2-(4-(3-(2,6-dioxopiperidin-3-yl)-4-oxo-3,4-dihydrobenzo[d][1,2,3]triazin-6-yl)piperazin-1-yl)acetyl)piperidin-4-yl)methyl)piperazin-1-yl)benzamide] | – | 11.4 | 330 |
| CC1(C)[C@H](NC(=O)c2ccc(N3CCN(CC4CCN(CC5CN(c6ccc7nnn(C8CCC(=O)NC8=O)c(=O)c7c6)C5)CC4)CC3)cc2)C(C)(C)[C@H]1Oc1ccc(C#N)c(Cl)c1 (stereo partly shown) [Example 67, N-((1r,3r)-3-(3-chloro-4-cyanophenoxy)-2,2,4,4-tetramethylcyclobutyl)-4-(4-((1-((1-(3-(2,6-dioxopiperidin-3-yl)-4-oxo-3,4-dihydrobenzo[d][1,2,3]triazin-6-yl)azetidin-3-yl)methyl)piperidin-4-yl)methyl)piperazin-1-yl)benzamide] | – | 88 | 106 |
| CC1(C)C(NC(=O)c2ccc(-c3cnn(C4CCN(CC5CCN(c6ccc7nnn(C8CCC(=O)NC8=O)c(=O)c7c6)CC5)CC4)c3)cc2)C(C)(C)C1Oc1ccc(C#N)c(Cl)c1 (stereo not shown) [Example 84, N-((1r,3r)-3-(3-chloro-4-cyanophenoxy)-2,2,4,4-tetramethylcyclobutyl)-4-(1-(1-((1-(3-(2,6-dioxopiperidin-3-yl)-4-oxo-3,4-dihydrobenzo[d][1,2,3]triazin-6-yl)piperidin-4-yl)methyl)piperidin-4-yl)-1H-pyrazol-4-yl)benzamide] | – | 18 | 15.4 |
| CC1(C)C(NC(=O)c2ccc(N3CCN(C=C4CCN(C(=O)C5CN(c6ccc7nnn(C8CCC(=O)NC8=O)c(=O)c7c6)C5)CC4)CC3)cc2)C(C)(C)C1Oc1ccc(C#N)c(Cl)c1 (stereo not shown) [Example 66, N-((1r,3r)-3-(3-chloro-4-cyanophenoxy)-2,2,4,4-tetramethylcyclobutyl)-4-(4-((1-(1-(3-(2,6-dioxopiperidin-3-yl)-4-oxo-3,4-dihydrobenzo[d][1,2,3]triazin-6-yl)azetidine-3-carbonyl)piperidin-4-ylidene)methyl)piperazin-1-yl)benzamide] | – | 35 | 18.2 |
| CC1(C)C(NC(=O)c2ccc(N3CCN(C(=O)CN4CCN(c5ccc6nnn(C7CCC(=O)NC7=O)c(=O)c6c5)CC4)CC3)cc2)C(C)(C)C1Oc1ccc(C#N)c(Cl)c1 (stereo not shown) [Example 57, N-((1r,3r)-3-(3-chloro-4-cyanophenoxy)-2,2,4,4-tetramethylcyclobutyl)-4-(4-(2-(4-(3-(2,6-dioxopiperidin-3-yl)-4-oxo-3,4-dihydrobenzo[d][1,2,3]triazin-6-yl)piperazin-1-yl)acetyl)piperazin-1-yl)benzamide] | – | 13.3 | 225 |
| CC1(C)C(NC(=O)c2ccc(C3CCN(CCOC4CCN(c5ccc6nnn(C7CCC(=O)NC7=O)c(=O)c6c5)CC4)CC3)cc2)C(C)(C)C1Oc1ccc(C#N)c(Cl)c1 (stereo not shown) [Example 76, N-((1r,3r)-3-(3-chloro-4-cyanophenoxy)-2,2,4,4-tetramethylcyclobutyl)-4-(1-(2-((1-(3-(2,6-dioxopiperidin-3-yl)-4-oxo-3,4-dihydrobenzo[d][1,2,3]triazin-6-yl)piperidin-4-yl)oxy)ethyl)piperidin-4-yl)benzamide] | – | 30 | 35 |
| CC1(C)C(NC(=O)c2ccc(N3CCN(CC4(O)CCN(C(=O)CNc5ccc6nnn(C7CCC(=O)NC7=O)c(=O)c6c5)CC4)CC3)cc2)C(C)(C)C1Oc1ccc(C#N)c(Cl)c1 (stereo not shown) [Example 53, N-((1r,3r)-3-(3-chloro-4-cyanophenoxy)-2,2,4,4-tetramethylcyclobutyl)-4-(4-((1-((3-(2,6-dioxopiperidin-3-yl)-4-oxo-3,4-dihydrobenzo[d][1,2,3]triazin-6-yl)glycyl)-4-hydroxypiperidin-4-yl)methyl)piperazin-1-yl)benzamide] | – | 5.8 | 19.7 |
| CC1(C)C(NC(=O)c2ccc(N3CCN(CCCOC4CCN(c5ccc6nnn(C7CCC(=O)NC7=O)c(=O)c6c5)CC4)CC3)cc2)C(C)(C)C1Oc1ccc(C#N)c(Cl)c1 (stereo not shown) [Example 39, N-((1r,3r)-3-(3-chloro-4-cyanophenoxy)-2,2,4,4-tetramethylcyclobutyl)-4-(4-(3-((1-(3-(2,6-dioxopiperidin-3-yl)-4-oxo-3,4-dihydrobenzo[d][1,2,3]triazin-6-yl)piperidin-4-yl)oxy)propyl)piperazin-1-yl)benzamide] | – | 2.1 | 86.6 |
| CC1(C)C(NC(=O)c2ccc(N3CCN(C(=O)COc4ccc5nnn(C6CCC(=O)NC6=O)c(=O)c5c4)CC3)cc2)C(C)(C)C1Oc1ccc(C#N)c(Cl)c1 (stereo not shown) [Example 41, N-((1r,3r)-3-(3-chloro-4-cyanophenoxy)-2,2,4,4-tetramethylcyclobutyl)-4-(4-(2-((3-(2,6-dioxopiperidin-3-yl)-4-oxo-3,4-dihydrobenzo[d][1,2,3]triazin-6-yl)oxy)acetyl)piperazin-1-yl)benzamide] | – | 12.3 | 20 |
| CC1(C)C(NC(=O)c2ccc(C#CCC3CCN(CC4CCN(c5ccc6nnn(C7CCC(=O)NC7=O)c(=O)c6c5)CC4)CC3)cc2)C(C)(C)C1Oc1ccc(C#N)c(Cl)c1 (stereo not shown) [Example 88, N-((1r,3r)-3-(3-chloro-4-cyanophenoxy)-2,2,4,4-tetramethylcyclobutyl)-4-(3-(1-((1-(3-(2,6-dioxopiperidin-3-yl)-4-oxo-3,4-dihydrobenzo[d][1,2,3]triazin-6-yl)piperidin-4-yl)methyl)piperidin-4-yl)prop-1-yn-1-yl)benzamide] | – | 14 | 14.5 |
| CC1(C)C(NC(=O)c2ccc(N3CCN(CCCOC4CCN(C(=O)COc5ccc6nnn(C7CCC(=O)NC7=O)c(=O)c6c5)CC4)CC3)cc2)C(C)(C)C1Oc1ccc(C#N)c(Cl)c1 (stereo not shown) [Example 38, N-((1r,3r)-3-(3-chloro-4-cyanophenoxy)-2,2,4,4-tetramethylcyclobutyl)-4-(4-(3-((1-(2-((3-(2,6-dioxopiperidin-3-yl)-4-oxo-3,4-dihydrobenzo[d][1,2,3]triazin-6-yl)oxy)acetyl)piperidin-4-yl)oxy)propyl)piperazin-1-yl)benzamide] | – | 27.3 | 43.2 |

From patent US20240018123A1, “COMPOUND FOR INHIBITING OR DISINTEGRATING ANDROGEN RECEPTOR, AND PHARMACEUTICAL USE THEREOF” (KOREA RESEARCH INSTITUTE OF CHEMICAL TECHNOLOGY, priority 2020, published 2024)
